According to US5252566A, “Antithrombotic agents” (priority 1992, dated 1993):
Counter-ions that a name gives are not always drawn. Where a SMILES comes first, the peptide text is derived from it. [ ]: non-standard residue; d: D form. dTic = O=C(O)[C@H]1Cc2ccccc2CN1; Aze = O=C(O)[C@@H]1CCN1

target: T1, thrombin (Bos taurus, UniProt P00735); assay: biochemical; conditions: not given
T1 construct: purchased
Protocol: The assay was carried out in 50 μl buffer (0.03M Tris, 0.15M NaCl, pH 7.4) with 25 μl of thrombin solution (0.21 mg/ml of thrombostat powder in 0.06M Tris, 0.3M NaCl, pH 7.4) and 150 μl of an aqueous solution of the chromogenic substrate at a concentration of 0.25 mg/ml. Solutions of test compound (25 μl) at various concentrations were added. Rates of hydrolysis of the substrate were measured by monitoring the reactions at 405 nm for the release of p-nitroaniline. Standard curves were constructed by plotting free thrombin concentration against hydrolysis rate. […] The amount of free inhibitor in each assay was calculated by subtracting the number of moles of bound thrombin from the number of moles of added inhibitor (test compound).
The Kass value is the hypothetical equilibrium constant for the reaction between thrombin and the test compound (I). [drawing 23]
Kass was calculated for a range of concentrations of test compounds and the mean value is reported in units of liter per mole.

| Kd [nM] | SMILES |
| --- | --- |
| 16.4 | CC(C)(C)OC(=O)N[C@@](C)(C(=O)N1CC[C@H]1C(=O)N[C@H](C=O)CCCN=C(N)N)c1ccccc1 [Boc--D--Phg(α-CH3)--Azt--Arg--H, N--Boc--D--Phg(α-CH3)--Azt--Arg--H] |
| 90.9 | CC(C)(C)OC(=O)NC(C)(C(=O)N1CC[C@H]1C(=O)N[C@H](C=O)CCCNC(=N)N)c1ccccc1 (mixture of isomers) [Boc--DL--Phg(α-CH3)--Azt--Arg--H, N--Boc--DL--Phg(α-CH3)--Azt--Arg--H] |

same assay, conditions: Table 1; mean over a range of concentrations of test compound; pH 7.4; read-out: Kass × 10^6 (Thrombin Inhibition Levels) (converted)

| SMILES | Kd [nM] |
| --- | --- |
| CC(=O)NC(C)(C(=O)N1CC[C@H]1C(=O)N[C@H](C=O)CCCNC(=N)N)c1ccccc1 (mixture of isomers) [Ac--Phg(α-CH3)--Azt--Arg--H, N--Acetyl--DL--Phg(α-CH3)--Azt--Arg--H] | 66.7 |
| CC(=O)N[C@@](C)(C(=O)N1CC[C@H]1C(=O)N[C@H](C=O)CCCNC(=N)N)c1ccccc1 [Ac--D--Phg(α-CH3)--Azt--Arg--H, N--Acetyl--D--Phg(α-CH3)--Azt--Arg--H] | 14.3 |

More lines, now with the values ahead:

| Kd [nM] | SMILES |
| --- | --- |
| 37 | N=C(N)NCCC[C@@H](C=O)NC(=O)[C@@H]1CCN1C(=O)C1NCCc2ccccc21 (mixture of isomers) [DL-1-Tiq--Azt--Arg--H, DL-1,2,3,4-tetrahydroisoquinolin-1-oyl-L-azetidinyl-L-arginine aldehyde sulfate] |
| 28.6 | N=C(N)NCCC[C@@H](C=O)NC(=O)[C@@H]1CCN1C(=O)[C@H]1Cc2ccccc2CN1 [D-3-Tiq--Azt--Arg--H, D-1,2,3,4-Tetrahydroisoquinolin-3-oyl-L-azetidin-2-oyl-L-arginine aldehyde sulfate] (H-[dTic]-[Aze]-Arg-aldehyde) |
| 7.87 | C[C@](NC(=O)C(F)(F)F)(C(=O)N1CC[C@H]1C(=O)N[C@H](C=O)CCCN=C(N)N)c1ccccc1 [TFA--D--Phg(α-Me)--Azt--Arg--H, N-[N-trifluoracetyl-D-(α-methyl)phenylglycyl)-L-azetidinyl-L-argininealdehyde hydrochloride] |
